Source: PMC6120666 (The EMBO Journal, 2018)

target: T1, XIAP BIR2 - RIPK2 interaction (Homo sapiens, UniProt O43353); experiment: GST-BIR2-XIAP pulldown of RIPK2; assay type: binding; conditions: U2OS/NOD2 lysates; inhibitors at 100-fold IC50 of RIPK2 kinase activity
T1 construct: U2OS/NOD2 cells were lysed in TBS lysis buffer; endogenous in cells; host or cells: U2OS/NOD2 cell lysate (RIPK2); E. coli BL21 (GST-BIR2-XIAP)
Method: For co‐immunoprecipitation of HA‐XIAP with RIPK2, transfected and treated cells were lysed in TBS buffer containing 0.5% NP‐40, cOmplete and PhosSTOP inhibitors (Roche) and the lysate was cleared by centrifugation. The lysates were incubated with anti‐HA‐agarose overnight, washed 3× with lysis buffer, and analyzed by immunoblotting. For GST pulldown experiments, U2OS/NOD2 cells were lysed in TBS lysis buffer containing 0.5% NP‐40, cOmplete and PhosSTOP inhibitors (Roche). Cleared lysates were pretreated with kinase inhibitors or DMSO and incubated with GST‐XIAP‐BIR2 bound to Glutathione Sepharose at 4°C overnight. Bound material was washed 3× with lysis buffer or PBS, eluted with 15 mM Glutathione in PBS, and analyzed by immunoblotting. […] The bound material was eluted and analyzed as described above.
For coimmunoprecipitation of HA-XIAP with RIPK2, transfected and treated cells were lysed in TBS buffer containing 0.5% NP-40, cOmplete and PhosSTOP inhibitors (Roche) and the lysate was cleared by centrifugation. The lysates were incubated with anti-HA-agarose overnight, washed 3x with lysis buffer and analyzed by immunoblotting. For GST pull-down experiments, U2OS/NOD2 were lysed in TBS lysis buffer containing 0.5% NP-40, cOmplete and PhosSTOP inhibitors (Roche).
Cleared lysates were pretreated with kinase inhibitors or DMSO and incubated with GST-XIAP-BIR2 bound to Glutathione Sepharose at 4 °C overnight. Bound material was washed 3x with lysis buffer or PBS, eluted with 15 mM Glutathione in PBS and analyzed by immunoblotting. In pull-down […]
inhibitors or DMSO control in PBS were added together with RIPK2 kinase domain to GST-XIAP-BIR2 bound to Glutathione Sepharose. The bound material was eluted and analyzed as described above. […]

Row | SMILES | pulldown of RIPK2 by GST-BIR2-XIAP from cell lysates
1 | CCCS(=O)(=O)Nc1cc(-c2cc(-c3ccc(N4CCNCC4)cc3)cnc2N)cc(OC)c1OC [CSLP43] | efficiently antagonized
2 | CCCS(=O)(=O)Nc1cc(-c2cc(-c3ccc(N4CCNCC4)cc3)cnc2N)ccc1O [CSLP48] | little effect
3 | CCCS(=O)(=O)Nc1cc(-c2cc(-c3ccc(N4CCNCC4)cc3)cnc2N)cc(F)c1OC [CSLP37] | efficiently antagonized
4 | COc1cc(-c2cc(-c3ccc(N4CCNCC4)cc3)cnc2N)cc(F)c1OC [CSLP55] | little effect

same assay, conditions: recombinant human RIPK2 KD (dephosphorylated); same inhibitor concentrations

Row | SMILES | GST-BIR2-XIAP binding to recombinant RIPK2 kinase domain
5 | CCCS(=O)(=O)Nc1cc(-c2cc(-c3ccc(N4CCNCC4)cc3)cnc2N)cc(OC)c1OC [CSLP43] | still antagonized
6 | CCCS(=O)(=O)Nc1cc(-c2cc(-c3ccc(N4CCNCC4)cc3)cnc2N)cc(F)c1OC [CSLP37] | still antagonized

test system: THP1Blue cells, NOD1; experiment: THP1Blue NF-κB-SEAP reporter assay, TriDAP (NOD1); assay type: cell-based; conditions: Homo sapiens; TriDAP 10 μg/ml; read-out: THP1-Blue NF-κB Inhibition IC50 (TriDAP)

Row | SMILES | IC50
7 | CCCS(=O)(=O)Nc1cc(-c2cc(-c3ccc(N4CCNCC4)cc3)cnc2N)cc(OC)c1OC [CSLP43] | 1.43 ± 0.1 nM
8 | CCCS(=O)(=O)Nc1cc(-c2cc(-c3ccc(N4CCNCC4)cc3)cnc2N)cc(F)c1OC [CSLP37] | 20.8 ± 1.2 nM

target: T2, recombinant RIPK2 kinase (Homo sapiens, UniProt O43353); experiment: RIPK2 ADPGlo in vitro kinase assay; assay type: biochemical; conditions: average ± SD of at least three titrations, read-out: IC50, In vitro kinase, RIPK2 ADPGIo
T2 construct: made in house
From the text: The BIR2 domains of XIAP and cIAP1 were cloned into the pGEX‐6P1 vector and were expressed in E. coli (BL21) cells as a fusion protein with N‐terminal 6xHis (XIAP BIR2 only) and GST tags. Protein expression was induced with IPTG, and cells were lysed using BugBuster protein extraction reagent (#70921, Merck Millipore) according to manufacturer's instructions. Proteins were purified with the FPLC protein purification system ÄKTA PrimePlus (GE Healthcare Life Sciences) using HisTrap FF column purification followed by gel filtration (HiLoad 26/600 Superdex 75 pg (GE Healthcare Life Sciences)). Collected fractions were stored at −80°C and used for probing of peptide array membranes. Expression and purification of recombinant RIPK1‐3 was performed as previously described (Canning et al, 2015; Najjar et al, 2015). RIPK1‐3 ADPGlo kinase assays using 20 ng/well protein were performed for 2 h at room temperature also as previously described (Canning et al, 2015; Najjar et al, 2015).

T2 sequence (O43353 whole entry): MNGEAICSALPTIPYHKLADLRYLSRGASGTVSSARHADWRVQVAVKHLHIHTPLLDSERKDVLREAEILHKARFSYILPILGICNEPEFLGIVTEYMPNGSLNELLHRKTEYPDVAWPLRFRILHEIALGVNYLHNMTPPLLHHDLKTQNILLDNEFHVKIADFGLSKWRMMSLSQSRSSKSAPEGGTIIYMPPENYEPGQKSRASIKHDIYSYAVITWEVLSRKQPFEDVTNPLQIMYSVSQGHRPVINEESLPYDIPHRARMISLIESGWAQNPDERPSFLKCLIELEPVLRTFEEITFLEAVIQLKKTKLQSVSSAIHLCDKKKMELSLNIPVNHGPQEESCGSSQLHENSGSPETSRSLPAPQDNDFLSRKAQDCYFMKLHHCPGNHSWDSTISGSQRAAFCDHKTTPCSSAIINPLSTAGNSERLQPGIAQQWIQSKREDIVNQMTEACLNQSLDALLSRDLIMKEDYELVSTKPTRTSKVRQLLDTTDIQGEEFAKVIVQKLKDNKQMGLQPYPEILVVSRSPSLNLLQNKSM

Row | SMILES | IC50
9 | CCCS(=O)(=O)Nc1cc(-c2cc(-c3ccc(N4CCNCC4)cc3)cnc2N)cc(OC)c1OC [CSLP43] | 19.9 ± 0.8 nM
10 | CCCS(=O)(=O)Nc1cc(-c2cc(-c3ccc(N4CCNCC4)cc3)cnc2N)ccc1O [CSLP48] | 53.5 ± 5.7 nM
11 | Cc1ccc(-c2nn(C(C)(C)CNC(=O)c3ccncc3)c3ncnc(N)c23)cc1 [WEHI‐345, reference compound] | 37.3 ± 1.3 nM
12 | CCCS(=O)(=O)Nc1cc(-c2cc(-c3ccc(N4CCNCC4)cc3)cnc2N)cc(F)c1OC [CSLP37] | 16.3 ± 4.6 nM
13 | COc1cc(-c2cc(-c3ccc(N4CCNCC4)cc3)cnc2N)cc(F)c1OC [CSLP55] | 39.1 ± 3.9 nM

test system: RAW264.7 cells; experiment: TNF ELISA, MDP-stimulated RAW264.7 cells; assay type: cell-based; conditions: Mus musculus, MDP 10 μg/ml, 24 h, read-out: RAW264.7 TNF release inhibition Est. IC50
Method: Figure 4 Cellular and in vivo characterization of novel RIPK2 inhibitors on inflammatory signaling • A, B ELISA measurement of TNF release from RAW264.7 cells treated with MDP (10 μg/ml, 24 h) and CSLP compounds or RIPK2 inhibitor WEHI‐345 as indicated. […] After 4 h, blood was collected by cardiac puncture and circulating levels of TNF were analyzed by ELISA. Data information: Data represent the mean ± SEM of three independent experiments. **P < 0.01, n.s., not significant. Two‐tailed unpaired Student's t‐test was used to determine statistical significance. See also Fig EV3. TEXT PRINTED IN THE PICTURE: (B) CSLP37: RAW264.7 TNF release inhibition Est. IC50 (nM): 12.6; RAW264.7 TNF release inhibition St. Err.: ±1.7 | (B) CSLP43: RAW264.7 TNF release inhibition Est. IC50 (nM): 1.2; RAW264.7 TNF release inhibition St. Err.: ±0.2 | (B) CSLP48: RAW264.7 TNF release inhibition Est. IC50 (nM): NI; RAW264.7 TNF release inhibition St. Err.: ±0.2 | (B) CSLP55: RAW264.7 TNF release inhibition Est. IC50 (nM): 143.0; RAW264.7 TNF release inhibition St. Err.: ±27.1 | (B) WEHI-345: RAW264.7 TNF release inhibition Est.
Cayman Chemical Company, Ann Arbor, MI), GSK583 (#HY-100339, MedChem Express, South Brunswick, NJ), WEHI-345 (MedKoo Biosciences, Morrisville, NC), Compound A (CpA, a kind gift from TetraLogic Pharmaceuticals, Malvern, PA). Generation of the CSLP compound series is described in Suebsuwong et al. 2018 (manuscript in preparation). […]
RAW264.7 cells were seeded into 12 well plates at a density of 1.5x10^5 cells/well in 1 ml of media.
Inhibitors were diluted and added in 1 μl DMSO 15 min prior to the addition of 10 μg/ml MDP or 10 ng/ml E. coli LPS for 24 h. For TNF measurements, 100 μl of undiluted media (MDP) or 5-fold diluted media was analyzed using Duo-Set anti-mouse TNF ELISA kit (R&D Systems, Minneapolis, MN).
Values of media-only wells were subtracted and %inhibition for each compound concentration relative to the DMSO/MDP (or LPS)-treated controls were calculated. Inhibition values + StDev were fitted by non-linear regression using Prism software (GraphPad) to calculate IC50 values. […]

Row | SMILES | IC50
14 | CCCS(=O)(=O)Nc1cc(-c2cc(-c3ccc(N4CCNCC4)cc3)cnc2N)cc(OC)c1OC [CSLP43] | 1.2 nM
15 | CCCS(=O)(=O)Nc1cc(-c2cc(-c3ccc(N4CCNCC4)cc3)cnc2N)ccc1O [CSLP48] | > 1000 nM
16 | Cc1ccc(-c2nn(C(C)(C)CNC(=O)c3ccncc3)c3ncnc(N)c23)cc1 [WEHI‐345, reference compound] | 123 nM
17 | CCCS(=O)(=O)Nc1cc(-c2cc(-c3ccc(N4CCNCC4)cc3)cnc2N)cc(F)c1OC [CSLP37] | 12.6 nM
18 | COc1cc(-c2cc(-c3ccc(N4CCNCC4)cc3)cnc2N)cc(F)c1OC [CSLP55] | 143 nM
